Experimental data published in PubChem BioAssay (NCI).
Where “and” joins values, the source holds several entries; their conditions need not be identical. Identical values can stand only once.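 Compound exposure: 48 hours, 5 concentrations, 96-well plates. GI50 = concentration required for 50% inhibition of growth. Definition used: TGI = concentration required for complete inhibition of growth.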

Key:
Experiment in all cases: DTP human tumour cell line panel, 48 h
UACC-62 melanoma = tested on: UACC-62 melanoma
CCRF-CEM leukemia = tested on: CCRF-CEM leukemia
NCI-H460 lung = tested on: NCI-H460 lung
NCI-H226 lung = tested on: NCI-H226 lung
MDA-MB-231 breast = tested on: MDA-MB-231 breast
OVCAR-4 ovarian = tested on: OVCAR-4 ovarian
SK-MEL-28 melanoma = tested on: SK-MEL-28 melanoma
NCI/ADR-RES ovarian = tested on: NCI/ADR-RES ovarian
M19-MEL melanoma = tested on: M19-MEL melanoma

O=P([O-])(O)OP(=O)([O-])O.[NH-][C@@H]1CCCC[C@H]1[NH-].[Pt+4]
GI50 (UACC-62 melanoma): 9.62 µM and 4.21 µM
TGI (UACC-62 melanoma): > 100 µM and 33.5 µM
GI50 (CCRF-CEM leukemia): 13 µM and 6.59 µM
TGI (CCRF-CEM leukemia): > 100 µM
GI50 (NCI-H460 lung): 4.4 µM and 2.33 µM
TGI (NCI-H460 lung): > 100 µM and 19.5 µM
GI50 (NCI-H226 lung): 32.3 µM and 5.29 µM
TGI (NCI-H226 lung): > 100 µM and 33.6 µM
GI50 (MDA-MB-231 breast): > 100 µM
TGI (MDA-MB-231 breast): > 100 µM
GI50 (OVCAR-4 ovarian): > 75.1 µM and 11.2 µM
TGI (OVCAR-4 ovarian): > 100 µM
GI50 (SK-MEL-28 melanoma): 14.1 µM and 5.74 µM
TGI (SK-MEL-28 melanoma): > 100 µM and 61.8 µM
GI50 (NCI/ADR-RES ovarian): 38.4 µM and 5.2 µM
TGI (NCI/ADR-RES ovarian): > 100 µM

O=C(Nc1cc[c]([Sb](=[O])([OH])[OH])cc1)c1ccccc1
GI50 (UACC-62 melanoma): > 100 µM
TGI (UACC-62 melanoma): > 100 µM
GI50 (CCRF-CEM leukemia): > 100 µM
TGI (CCRF-CEM leukemia): > 100 µM
GI50 (NCI-H460 lung): > 100 µM
TGI (NCI-H460 lung): > 100 µM
GI50 (NCI-H226 lung): > 100 µM
TGI (NCI-H226 lung): > 100 µM
GI50 (MDA-MB-231 breast): > 100 µM
TGI (MDA-MB-231 breast): > 100 µM
GI50 (OVCAR-4 ovarian): > 100 µM
TGI (OVCAR-4 ovarian): > 100 µM
GI50 (SK-MEL-28 melanoma): > 100 µM
TGI (SK-MEL-28 melanoma): > 100 µM
GI50 (NCI/ADR-RES ovarian): > 100 µM
TGI (NCI/ADR-RES ovarian): > 100 µM

COc1c(Cl)c2c(c(OC)c1OC)-c1ccc(SC)c(=O)cc1[C@@H](NC(=O)OCC(F)(F)F)CC2
GI50 (UACC-62 melanoma): < 0.01 µM
TGI (UACC-62 melanoma): 21.2 µM
GI50 (CCRF-CEM leukemia): < 0.01 µM
TGI (CCRF-CEM leukemia): > 100 µM
GI50 (NCI-H460 lung): < 0.01 µM
TGI (NCI-H460 lung): 10.2 µM
GI50 (NCI-H226 lung): < 0.01 µM
TGI (NCI-H226 lung): 41.5 µM
GI50 (MDA-MB-231 breast): < 0.01 µM
TGI (MDA-MB-231 breast): 3.24 µM
GI50 (OVCAR-4 ovarian): 0.0889 µM
TGI (OVCAR-4 ovarian): > 100 µM
GI50 (SK-MEL-28 melanoma): 5.99 µM
TGI (SK-MEL-28 melanoma): > 100 µM
GI50 (NCI/ADR-RES ovarian): 0.0182 µM

O=C([O][Hg][CH2]C1COCC([CH2][Hg][O]C(=O)c2ccccc2)O1)c1ccccc1 (stereo not given)
GI50 (UACC-62 melanoma): 16.4 µM
TGI (UACC-62 melanoma): 32.4 µM
GI50 (CCRF-CEM leukemia): 0.804 µM
TGI (CCRF-CEM leukemia): 5.08 µM
GI50 (NCI-H460 lung): 20 µM
TGI (NCI-H460 lung): 42.5 µM
GI50 (NCI-H226 lung): 20.8 µM
TGI (NCI-H226 lung): 41.9 µM
GI50 (MDA-MB-231 breast): 19.4 µM
TGI (MDA-MB-231 breast): 45.6 µM
GI50 (OVCAR-4 ovarian): 14.4 µM
TGI (OVCAR-4 ovarian): 49.6 µM
GI50 (SK-MEL-28 melanoma): 6.86 µM
TGI (SK-MEL-28 melanoma): 19.6 µM
GI50 (NCI/ADR-RES ovarian): 21.1 µM
TGI (NCI/ADR-RES ovarian): 61.6 µM

CCc1nc(N)nc(C(=O)NCCNC(=O)c2nc(N)nc(CC)c2C)c1C
TGI (M19-MEL melanoma): > 100 µM
TGI (UACC-62 melanoma): > 100 µM
TGI (NCI-H460 lung): > 100 µM
TGI (NCI-H226 lung): > 100 µM
TGI (OVCAR-4 ovarian): > 100 µM
TGI (SK-MEL-28 melanoma): > 100 µM

COc1ccc2c(CN3CCC[C@H]3C(=O)O)cc3cc4c(cc3c2c1)OCO4
GI50 (UACC-62 melanoma): 10.9 µM
TGI (UACC-62 melanoma): 23.7 µM
GI50 (CCRF-CEM leukemia): 10.2 µM
TGI (CCRF-CEM leukemia): > 100 µM
GI50 (NCI-H460 lung): 14.6 µM
TGI (NCI-H460 lung): 88.2 µM
GI50 (NCI-H226 lung): 17 µM
TGI (NCI-H226 lung): > 100 µM
GI50 (MDA-MB-231 breast): 23.5 µM
TGI (MDA-MB-231 breast): > 100 µM
GI50 (OVCAR-4 ovarian): 19.2 µM
TGI (OVCAR-4 ovarian): 61.4 µM
GI50 (SK-MEL-28 melanoma): 15.5 µM
TGI (SK-MEL-28 melanoma): 36.8 µM
GI50 (NCI/ADR-RES ovarian): 23.8 µM
TGI (NCI/ADR-RES ovarian): > 100 µM

Nc1ncn(C2C=C(CO)C(O)C2O)c(=O)n1 (stereo not given)
TGI (M19-MEL melanoma): > 100 µM
TGI (UACC-62 melanoma): > 100 µM
TGI (NCI-H460 lung): > 100 µM
TGI (NCI-H226 lung): > 100 µM
TGI (OVCAR-4 ovarian): > 100 µM
TGI (SK-MEL-28 melanoma): > 100 µM

CCOc1ccc(Nc2nc(-c3ccc4c(c3)NC(=O)CO4)cs2)cc1
GI50 (UACC-62 melanoma): 6.94 µM
TGI (UACC-62 melanoma): 23.5 µM
GI50 (CCRF-CEM leukemia): 6.28 µM
TGI (CCRF-CEM leukemia): > 100 µM
GI50 (NCI-H460 lung): 4.37 µM
TGI (NCI-H460 lung): > 100 µM
GI50 (NCI-H226 lung): 10 µM
TGI (NCI-H226 lung): > 100 µM
GI50 (MDA-MB-231 breast): 21.1 µM
TGI (MDA-MB-231 breast): > 100 µM
GI50 (OVCAR-4 ovarian): 3.51 µM
TGI (OVCAR-4 ovarian): > 100 µM
GI50 (SK-MEL-28 melanoma): 4.29 µM
TGI (SK-MEL-28 melanoma): 19.6 µM
GI50 (NCI/ADR-RES ovarian): 4.12 µM
TGI (NCI/ADR-RES ovarian): > 100 µM

COC(=O)C(=O)C(C#N)c1ccc(CC#N)cc1 (stereo not given)
TGI (M19-MEL melanoma): > 100 µM
TGI (UACC-62 melanoma): > 100 µM
TGI (CCRF-CEM leukemia): > 100 µM
TGI (NCI-H226 lung): > 100 µM
TGI (SK-MEL-28 melanoma): > 100 µM

O=c1[nH]c2c3ccccc3ccc2c2cc3c(cc12)OCO3
TGI (M19-MEL melanoma): > 100 µM
TGI (UACC-62 melanoma): > 100 µM
TGI (CCRF-CEM leukemia): > 100 µM
TGI (NCI-H460 lung): > 100 µM
TGI (NCI-H226 lung): > 100 µM
TGI (OVCAR-4 ovarian): > 100 µM
TGI (SK-MEL-28 melanoma): > 100 µM

Cc1ccc(C(=O)C(Cl)C(Cl)c2ccc(C)cc2)cc1 (stereo not given)
TGI (UACC-62 melanoma): 10.9 µM
TGI (CCRF-CEM leukemia): 4.28 µM
TGI (NCI-H460 lung): 22.3 µM
TGI (NCI-H226 lung): 11.4 µM
TGI (MDA-MB-231 breast): 16.1 µM
TGI (OVCAR-4 ovarian): 5.04 µM
TGI (SK-MEL-28 melanoma): 8.68 µM
TGI (NCI/ADR-RES ovarian): 6.15 µM

C[C@@H]1N=C(c2ccc(Br)cc2)Nc2nc3ccccn3c2C1=O
GI50 (UACC-62 melanoma): 4.35 µM
TGI (UACC-62 melanoma): > 100 µM
GI50 (CCRF-CEM leukemia): 6.56 µM
TGI (CCRF-CEM leukemia): > 100 µM
GI50 (NCI-H460 lung): 3.06 µM
TGI (NCI-H460 lung): > 100 µM
GI50 (NCI-H226 lung): 14.7 µM
TGI (NCI-H226 lung): > 100 µM
GI50 (MDA-MB-231 breast): 6.08 µM
TGI (MDA-MB-231 breast): > 100 µM
GI50 (OVCAR-4 ovarian): 17.9 µM
TGI (OVCAR-4 ovarian): > 100 µM
GI50 (SK-MEL-28 melanoma): 9.51 µM
TGI (SK-MEL-28 melanoma): > 100 µM
GI50 (NCI/ADR-RES ovarian): 7.45 µM
TGI (NCI/ADR-RES ovarian): > 100 µM

CCn1c(O)c(C=N)c(=O)n(CC)c1=O
TGI (M19-MEL melanoma): > 100 µM
TGI (UACC-62 melanoma): > 100 µM
TGI (CCRF-CEM leukemia): > 100 µM
TGI (NCI-H460 lung): > 100 µM
TGI (NCI-H226 lung): > 100 µM
TGI (OVCAR-4 ovarian): > 100 µM
TGI (SK-MEL-28 melanoma): > 100 µM

Nc1cc(-c2cccc(OC(F)(F)F)c2)nc2ccc(N3CCCC3)cc12
GI50 (UACC-62 melanoma): 0.0718 µM and 0.048 µM and 0.0603 µM
TGI (UACC-62 melanoma): 15.8 µM and > 100 µM
GI50 (CCRF-CEM leukemia): 0.0381 µM and 0.0302 µM and 0.0259 µM
TGI (CCRF-CEM leukemia): 11.6 µM and > 52.5 µM and > 49.6 µM
GI50 (NCI-H460 lung): 0.0354 µM and 0.0359 µM
TGI (NCI-H460 lung): 12.5 µM and > 100 µM
GI50 (NCI-H226 lung): 0.238 µM and 0.237 µM
TGI (NCI-H226 lung): > 100 µM
GI50 (MDA-MB-231 breast): 0.0385 µM and 0.0353 µM and 0.0356 µM
TGI (MDA-MB-231 breast): 7.26 µM and > 38.6 µM and 56.9 µM
GI50 (OVCAR-4 ovarian): 0.519 µM and 1.16 µM and 1.59 µM
TGI (OVCAR-4 ovarian): > 100 µM
GI50 (SK-MEL-28 melanoma): 1.46 µM and 3.07 µM and 3.91 µM
GI50 (NCI/ADR-RES ovarian): 0.0362 µM and 0.0363 µM and 0.0324 µM
TGI (NCI/ADR-RES ovarian): 20 µM and > 100 µM

O=CN1N=C(c2ccc(Cl)cc2)CC1c1cccc(Nc2ccnc3cc(Cl)ccc23)c1 (stereo not given)
GI50 (UACC-62 melanoma): 1.14 µM
TGI (UACC-62 melanoma): 19.6 µM
GI50 (CCRF-CEM leukemia): 1.42 µM
TGI (CCRF-CEM leukemia): 23.1 µM
GI50 (NCI-H460 lung): 1.86 µM
TGI (NCI-H460 lung): 11.9 µM
GI50 (NCI-H226 lung): 1.87 µM
TGI (NCI-H226 lung): 57.7 µM
GI50 (MDA-MB-231 breast): 2.74 µM
TGI (MDA-MB-231 breast): 39.2 µM
GI50 (OVCAR-4 ovarian): 0.638 µM
TGI (OVCAR-4 ovarian): 16.7 µM
GI50 (SK-MEL-28 melanoma): 3.15 µM
TGI (SK-MEL-28 melanoma): 31.2 µM
GI50 (NCI/ADR-RES ovarian): 0.784 µM
TGI (NCI/ADR-RES ovarian): > 100 µM

COc1ccc2c(c1)OC1=C(C(=O)OC1)C2c1cc(OC)c(OC)c(OC)c1 (stereo not given)
GI50 (UACC-62 melanoma): 0.55 µM
TGI (UACC-62 melanoma): > 100 µM
GI50 (CCRF-CEM leukemia): 0.315 µM
TGI (CCRF-CEM leukemia): > 100 µM
GI50 (NCI-H460 lung): 0.359 µM
TGI (NCI-H460 lung): > 81.2 µM
GI50 (NCI-H226 lung): 0.441 µM
TGI (NCI-H226 lung): 5.99 µM
GI50 (MDA-MB-231 breast): 1.3 µM
TGI (MDA-MB-231 breast): > 100 µM
GI50 (OVCAR-4 ovarian): 1.42 µM
TGI (OVCAR-4 ovarian): > 100 µM
GI50 (SK-MEL-28 melanoma): 0.667 µM
TGI (SK-MEL-28 melanoma): > 100 µM
GI50 (NCI/ADR-RES ovarian): 0.325 µM
TGI (NCI/ADR-RES ovarian): > 100 µM

O=C1c2cc([N+](=O)[O-])ccc2-c2cccc(F)c21
TGI (UACC-62 melanoma): > 100 µM
TGI (CCRF-CEM leukemia): > 100 µM
TGI (NCI-H460 lung): > 100 µM
TGI (NCI-H226 lung): > 100 µM
TGI (MDA-MB-231 breast): > 100 µM
TGI (OVCAR-4 ovarian): > 100 µM
TGI (SK-MEL-28 melanoma): > 100 µM
TGI (NCI/ADR-RES ovarian): > 100 µM
